Data on 36 molecules can be found in US8637511B2, “Aminopyrimidines useful as kinase inhibitors” (Vertex Pharmaceuticals Incorporated, priority 2005, dated 2014).

Values joined by “and” are separate entries in the source; they are usually repeats but may differ in a detail not shown here. Equal values may be shown once. Read-outs that look alike come from different tables or passages of the source.

One test has as its target Aurora-1 (Aurora B) (Homo sapiens, UniProt Q96GD4). Put plainly: Aurora-1 (Aurora B) inhibition assay (radiometric). The format is biochemical. To be noted: read-out: Aurora B kinase Ki value. The method, boiled down: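 Ki values come from non-linear regression of background-corrected initial-rate data. The enzyme was preincubated 10 min at 25° C with compound, then reacted 3 h with 800 μM (final) [γ-^33P]-ATP in HEPES pH 7.5/MgCl2/BSA/glycerol buffer. The reaction was stopped with phosphoric acid and substrate-bound ^33P counted on phosphocellulose.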

Another test deals with T1, JAK3 (Homo sapiens, UniProt P52333).
T1 sequence (P52333 1-1124): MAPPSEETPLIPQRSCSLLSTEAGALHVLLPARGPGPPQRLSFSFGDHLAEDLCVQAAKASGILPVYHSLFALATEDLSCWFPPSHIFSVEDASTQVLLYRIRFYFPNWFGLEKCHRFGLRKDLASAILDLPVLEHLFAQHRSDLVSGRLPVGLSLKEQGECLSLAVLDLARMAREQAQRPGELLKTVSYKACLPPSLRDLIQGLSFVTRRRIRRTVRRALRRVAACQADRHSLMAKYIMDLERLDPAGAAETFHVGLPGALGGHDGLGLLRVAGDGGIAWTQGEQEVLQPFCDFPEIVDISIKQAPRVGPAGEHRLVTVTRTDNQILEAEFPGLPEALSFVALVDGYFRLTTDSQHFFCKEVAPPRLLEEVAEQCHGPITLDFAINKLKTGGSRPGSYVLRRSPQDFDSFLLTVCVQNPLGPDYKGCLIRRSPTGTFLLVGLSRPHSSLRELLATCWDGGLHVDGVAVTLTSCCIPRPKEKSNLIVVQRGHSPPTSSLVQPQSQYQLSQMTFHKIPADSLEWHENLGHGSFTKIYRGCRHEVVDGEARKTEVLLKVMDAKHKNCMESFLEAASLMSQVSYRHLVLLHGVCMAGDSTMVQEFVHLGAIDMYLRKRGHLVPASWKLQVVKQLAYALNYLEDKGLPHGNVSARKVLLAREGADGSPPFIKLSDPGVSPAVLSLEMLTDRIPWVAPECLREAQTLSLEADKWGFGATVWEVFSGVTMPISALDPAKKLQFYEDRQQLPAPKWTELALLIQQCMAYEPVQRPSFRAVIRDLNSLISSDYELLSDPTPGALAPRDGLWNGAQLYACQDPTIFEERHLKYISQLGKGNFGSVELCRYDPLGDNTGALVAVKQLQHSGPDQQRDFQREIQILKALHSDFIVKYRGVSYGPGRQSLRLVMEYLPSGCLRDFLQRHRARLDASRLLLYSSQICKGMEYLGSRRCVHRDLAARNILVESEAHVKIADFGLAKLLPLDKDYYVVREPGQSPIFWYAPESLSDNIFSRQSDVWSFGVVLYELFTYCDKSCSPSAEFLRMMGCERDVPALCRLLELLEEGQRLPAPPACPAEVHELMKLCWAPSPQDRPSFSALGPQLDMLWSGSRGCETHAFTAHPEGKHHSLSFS
Put plainly: biochemical.

Aurora-1 (Aurora B), sequence (Q96GD4 whole entry): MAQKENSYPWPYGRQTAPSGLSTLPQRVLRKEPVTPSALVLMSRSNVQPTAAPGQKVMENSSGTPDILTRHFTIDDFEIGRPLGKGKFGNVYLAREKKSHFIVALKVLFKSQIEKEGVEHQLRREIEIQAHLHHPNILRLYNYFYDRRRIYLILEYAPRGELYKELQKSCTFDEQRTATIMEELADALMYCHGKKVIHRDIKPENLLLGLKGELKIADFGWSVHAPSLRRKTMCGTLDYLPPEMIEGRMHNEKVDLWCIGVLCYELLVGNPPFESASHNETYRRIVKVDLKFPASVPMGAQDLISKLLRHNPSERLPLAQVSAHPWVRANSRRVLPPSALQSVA

Take `Cc1cc(Nc2cc(N3CCC3)nc(Sc3ccc(C(=O)NCc4ccccc4)cc3)n2)n[nH]1` [Compound 19]: the results for the Ki on Aurora-1 (Aurora B) and on JAK3 were at most 10 nM and 10 to 500 nM, respectively.

Consider `Cc1cc(Nc2cc(N3CC(F)(C4CC4)C3)nc(Sc3ccc4nc(C(F)(F)F)[nH]c4c3)n2)[nH]n1` [Compound 202], for which the Ki at Aurora-1 (Aurora B) is 10 to 50 nM and < 25 nM; on JAK3, at most 10 nM.

With `CCC(=O)Nc1ccc(Sc2nc(Nc3cc(C)n[nH]3)cc(N3CC(C)(NC(C)(C)C)C3)n2)cc1` [Compound 80], the Ki fell in the range of 10 to 50 nM on Aurora-1 (Aurora B) and 10 to 500 nM on JAK3.

Take `COc1ccc(C(=O)Nc2ccc(Sc3nc(Nc4cc(C)n[nH]4)cc(N4CCC4)n3)cc2)cc1` [Compound 117]: the Ki at Aurora-1 (Aurora B) is 10 to 50 nM; at JAK3, 10 to 500 nM.

Consider `CCC(=O)Nc1ccc(Sc2nc(Nc3cc(C)[nH]n3)cc(N3CC(O)C3)n2)cc1` [Compound 15], for which the Ki on Aurora-1 (Aurora B) was 10 to 50 nM and < 25 nM; at JAK3 it was 10 to 500 nM.

In the case of `Cc1cc(Nc2cc(N3CCC3)nc(Sc3ccc(NC(=O)c4c(F)cccc4N4CCC4)cc3)n2)n[nH]1` [Compound 8], the Ki on Aurora-1 (Aurora B) is at most 10 nM; at JAK3, 10 to 500 nM.

In the case of `Cc1cc(Nc2cc(N3CCC3)nc(Sc3cccc(NC(=O)c4ccccc4Cl)c3)n2)[nH]n1` [Compound 49], the Ki was in the range of 50 to 2000 nM at Aurora-1 (Aurora B) and 10 to 500 nM at JAK3 (read-out: JAK3 Ki value).

As for `CCC(=O)Nc1ccc(Sc2nc(Nc3cc(C)n[nH]3)cc(N3CC(C)(O)C3)n2)cc1` [Compound 71], the Ki lay within 10 to 50 nM at Aurora-1 (Aurora B) and 10 to 500 nM at JAK3 (read-out: JAK3 Ki value).

Turning to `Cc1cc(Nc2cc(N3CCC3)nc(Sc3ccc(C(=O)NC4CCCC4)cc3)n2)n[nH]1` [Compound 23], the Ki on Aurora-1 (Aurora B) is 50 to 2000 nM; at JAK3 it was 500 to 2000 nM.

Turning to `CC(=O)Nc1cccc(Sc2nc(Nc3cc(C)n[nH]3)cc(N3CC(F)(C4CC4)C3)n2)c1` [Compound 188], the results for the Ki on Aurora-1 (Aurora B) and on JAK3 (read-out: JAK3 Ki value) were 10 to 50 nM and 10 to 500 nM, respectively.

As for `Cc1cc(Nc2cc(N3CC(F)(C4CC4)C3)nc(Sc3ccc4nc(C(F)(F)F)cn4c3)n2)[nH]n1` [Compound 190], the Ki lay in the range of 10 to 50 nM at Aurora-1 (Aurora B) and 10 to 500 nM on JAK3 (read-out: JAK3 Ki value).

With `CC1=NN=C(Nc2cc(N3CCC3)nc(Sc3ccc(NC(=O)c4ccccc4)cc3)n2)C1` [Compound 52], the Ki is 50 to 2000 nM at Aurora-1 (Aurora B) and 10 to 500 nM at JAK3.

As to `Cc1ccc(S(=O)(=O)Nc2ccc(Sc3nc(Nc4cc(C)[nH]n4)cc(N4CCC4)n3)cc2)cc1` [Compound 27], the results for the inhibitory constant (Ki) at Aurora-1 (Aurora B) and on JAK3 were 50 to 2000 nM and 500 to 2000 nM, respectively.

For `Cc1cc(Nc2cc(N3CCC3)nc(Sc3ccc(NC(=O)c4nccn4C)cc3)n2)n[nH]1` [Compound 166], the Ki is 50 to 2000 nM at Aurora-1 (Aurora B) and 10 to 500 nM on JAK3 (read-out: JAK3 Ki value).

For `CCC(=O)Nc1ccc(Sc2nc(Nc3cc(C)n[nH]3)cc(N3CC(O)(C(C)(C)C)C3)n2)cc1` [Compound 81], the Ki on Aurora-1 (Aurora B) and at JAK3 (read-out: JAK3 Ki value) was at most 10 nM throughout.

`Cc1cnc(Nc2cc(N3CCC3)nc(Sc3ccc(NC(=O)C4CC4)cc3)n2)s1` [Compound 4]: the Ki at Aurora-1 (Aurora B) fell in the range of 50 to 2000 nM; on JAK3, 500 to 2000 nM.

With `Cc1cc(Nc2cc(N3CC(F)(C4CC4)C3)nc(Sc3ccc(N)cc3)n2)[nH]n1` [Compound 209], the Ki on Aurora-1 (Aurora B) is 50 to 2000 nM; at JAK3, at most 10 nM.

Turning to `Cc1cc(Nc2cc(N3CCC3)nc(Sc3ccc(NC(=O)C(C)CC(F)(F)F)cc3)n2)[nH]n1` (stereo not drawn) [Compound 127], the Ki at Aurora-1 (Aurora B) is 10 to 50 nM and < 25 nM; on JAK3, 500 to 2000 nM.

For `Cc1ccc(C(=O)Nc2ccc(Sc3nc(Nc4cc(C)[nH]n4)cc(N4CCC4)n3)cc2)cc1` [Compound 28], the results for the Ki on Aurora-1 (Aurora B) and at JAK3 were 10 to 50 nM and 10 to 500 nM, respectively.

Turning to `Cc1cc(Nc2cc(N3CCC3)nc(Sc3ccc(NC(=O)c4ccc(F)cc4F)cc3)n2)n[nH]1` [Compound 44], the figures for the Ki at Aurora-1 (Aurora B) and on JAK3 (read-out: JAK3 Ki value) were 10 to 50 nM and 10 to 500 nM, respectively.

Regarding `Cc1cc(Nc2cc(N3CCC3)nc(Sc3ccc(NC(=O)c4cc(C)nc(Cl)c4)cc3)n2)[nH]n1` [Compound 149], the Ki is 10 to 50 nM at Aurora-1 (Aurora B) and 10 to 500 nM at JAK3.

Regarding `Cc1cc(Nc2cc(N3CCC3)nc(Sc3ccc(NC(=O)c4ccncc4C(F)(F)F)cc3)n2)[nH]n1` [Compound 146], the figures for the Ki at Aurora-1 (Aurora B) and on JAK3 were at most 10 nM and 10 to 500 nM, respectively.

Regarding `Cc1cc(Nc2cc(N3CC(O)(C4CC4)C3)nc(Sc3ccc4ccccc4c3)n2)n[nH]1` [Compound 131], the values for the Ki at Aurora-1 (Aurora B) and on JAK3 were 50 to 2000 nM and at most 10 nM, respectively.

Regarding `Cc1cc(Nc2cc(N3CCC3)nc(Sc3ccc(NC(=O)OC(C)(C)C)cc3)n2)n[nH]1` [Compound 26], the Ki on Aurora-1 (Aurora B) lay in the range of 50 to 2000 nM; on JAK3, 500 to 2000 nM.

`CCC(=O)Nc1ccc(Sc2nc(Nc3cc(C)n[nH]3)cc(N3CC(C)(OC(C)(C)C)C3)n2)cc1` [Compound 96]: the Ki at Aurora-1 (Aurora B) was 10 to 50 nM and < 25 nM; on JAK3, 10 to 500 nM.

`Cc1cc(Nc2cc(N3CCC3)nc(Sc3ccc(NC(=O)CC(F)(F)F)cc3)n2)n[nH]1` [Compound 40]: the Ki at Aurora-1 (Aurora B) was at most 10 nM; on JAK3 (read-out: JAK3 Ki value), 10 to 500 nM.

Take `Cc1cc(Nc2cc(N3CC(N4CCCC4)C3)nc(Sc3ccc4ncccc4c3)n2)n[nH]1` [Compound 159]: the Ki at Aurora-1 (Aurora B) and on JAK3 was at most 10 nM each time.

With `Cc1cc(Nc2cc(N3CCC3)nc(Sc3ccc(C(=O)N4CCCC4)cc3)n2)n[nH]1` [Compound 22], the Ki on Aurora-1 (Aurora B) lay in the range of 50 to 2000 nM; on JAK3, 10 to 500 nM.

Regarding `Cc1cnc(Nc2cc(N3CC(O)C3)nc(Sc3ccc(NC(=O)C4CC4)cc3)n2)s1` [Compound 3], the Ki on Aurora-1 (Aurora B) was at most 10 nM; at JAK3 (read-out: JAK3 Ki value), 10 to 500 nM.

`Cc1cc(Nc2cc(N3CCC3)nc(Sc3ccc(C(=O)Nc4ccccc4Cl)cc3)n2)[nH]n1` [Compound 48]: the Ki on Aurora-1 (Aurora B) is at most 10 nM; on JAK3 (read-out: JAK3 Ki value) it was 10 to 500 nM.

As for `Cc1cc(Nc2cc(N3CCC3)nc(Sc3ccc4ccccc4c3)n2)n[nH]1` [Compound 25], the Ki was 50 to 2000 nM on Aurora-1 (Aurora B) and at most 10 nM at JAK3.

Regarding `Cc1cc(Nc2cc(N3CC(N4CC[C@H](F)C4)C3)nc(Sc3ccc4ncccc4c3)n2)n[nH]1` [Compound 160], the Ki on Aurora-1 (Aurora B) and at JAK3 (read-out: JAK3 Ki value) was at most 10 nM throughout.

On to `CCC(=O)Nc1ccc(Sc2nc(Nc3cc(C)[nH]n3)cc(N3CCC3)n2)cc1` [Compound 14], for which the Ki was 10 to 50 nM and < 25 nM on Aurora-1 (Aurora B); 10 to 500 nM on JAK3 (read-out: JAK3 Ki value).

As for `COC1CN(c2cc(Nc3cc(C)n[nH]3)nc(Sc3ccc(NC(=O)c4ccccc4C(F)(F)F)cc3)n2)C1` [Compound 126], the figures for the Ki on Aurora-1 (Aurora B) and at JAK3 (read-out: JAK3 Ki value) were at most 10 nM and 10 to 500 nM, respectively.

With `Cc1cc(Nc2cc(N3CCC3)nc(Sc3ccc(NC(=O)C4CCCCC4)cc3)n2)n[nH]1` [Compound 30], the results for the Ki on Aurora-1 (Aurora B) and on JAK3 were 10 to 50 nM and 10 to 500 nM, respectively.

Turning to `Cc1cc(Nc2cc(N3CCC3)nc(Sc3ccc(NS(C)(=O)=O)cc3)n2)[nH]n1` [Compound 150], the Ki at Aurora-1 (Aurora B) was 50 to 2000 nM; on JAK3, at most 10 nM.
